The supplement of paper PMC5908809

Legend:
DERL-7 (IL-2 2.5 ng/mL) [1] = assay: drug sensitivity score (DSS) (DSS units); higher = more sensitive; extreme values may be limits of the assay; settings: 72 h
[2] = system: normal primary NK cells, pool 3 (3 donors) (IL-2 2.5 ng/mL); assay: as above; settings: 72 h
[3] = system: normal primary NK cells, pool 1 (3 donors), resting (IL-2 0 ng/mL); assay: as above; settings: 72 h
YT (IL-2 2.5 ng/mL) [4] = assay: as above; settings: 72 h
[5] = system: normal primary NK cells, pool 2 (3 donors) (IL-2 2.5 ng/mL); assay: as above; settings: 72 h
IMC-1 (IL-2 20 ng/mL) [6] = assay: as above; settings: 72 h
NKL (IL-2 2.5 ng/mL) [7] = assay: as above; settings: 72 h
NK-92 (IL-2 2.5 ng/mL) [8] = assay: as above; settings: 72 h
KAI3 (IL-2 2.5 ng/mL) [9] = assay: as above; settings: 72 h
NK-YS (IL-2 2.5 ng/mL) [10] = assay: as above; settings: 72 h
KHYG-1 (IL-2 2.5 ng/mL) [11] = assay: as above; settings: 72 h
SNK-6 (IL-2 2.5 ng/mL) [12] = assay: as above; settings: 72 h
[13] = system: normal primary NK cells, pool 1 (3 donors) (IL-2 2.5 ng/mL); assay: as above; settings: 72 h
DERL-7 (IL-2 2.5 ng/mL) [14] = assay: percent inhibition of viability; higher = more inhibition; settings: 72 h
[15] = system: normal primary NK cells, pool 3 (3 donors) (IL-2 2.5 ng/mL); assay: as above; settings: 72 h
[16] = system: normal primary NK cells, pool 1 (3 donors), resting (IL-2 0 ng/mL); assay: as above; settings: 72 h
YT (IL-2 2.5 ng/mL) [17] = assay: as above; settings: 72 h
[18] = system: normal primary NK cells, pool 2 (3 donors) (IL-2 2.5 ng/mL); assay: as above; settings: 72 h
IMC-1 (IL-2 20 ng/mL) [19] = assay: as above; settings: 72 h
NKL (IL-2 2.5 ng/mL) [20] = assay: as above; settings: 72 h
NK-92 (IL-2 2.5 ng/mL) [21] = assay: as above; settings: 72 h
KAI3 (IL-2 2.5 ng/mL) [22] = assay: as above; settings: 72 h
NK-YS (IL-2 2.5 ng/mL) [23] = assay: as above; settings: 72 h
KHYG-1 (IL-2 2.5 ng/mL) [24] = assay: as above; settings: 72 h
SNK-6 (IL-2 2.5 ng/mL) [25] = assay: as above; settings: 72 h
[26] = system: normal primary NK cells, pool 1 (3 donors) (IL-2 2.5 ng/mL); assay: as above; settings: 72 h
[27] = system: normal NK cells expanded with K562-aAPC; assay: drug sensitivity score (DSS) (DSS units); higher = more sensitive; extreme values may be limits of the assay; settings: 72 h; IL-2 2.5 ng/mL
Procedure: (§1)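 Drug sensitivity and resistance testing on K562-aAPC-expanded normal NK cells: 5 concentrations (10-fold steps over a 10,000-fold range), 72 h at 37 °C, viability by CellTiter-Glo normalised to DMSO and benzethonium chloride controls; DSS from the fitted curve.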

[28] = system: normal NK cells expanded with K562-aAPC; assay: percent inhibition of viability; higher = more inhibition; settings: 72 h, IL-2 2.5 ng/mL
Procedure: as §1

Cc1cc(C)c(CNC(=O)c2cc(-c3ccc(CN4CCOCC4)cc3)cc3c2cnn3C2CCCC2)c(=O)[nH]1 [EPZ-5687] (max concentration tested 10000 nM)
Settings | drug sensitivity score
DERL-7 (IL-2 2.5 ng/mL) [1] | 0
IMC-1 (IL-2 20 ng/mL) [6] | 0
KAI3 (IL-2 2.5 ng/mL) [9] | 0
KHYG-1 (IL-2 2.5 ng/mL) [11] | 0
NK-92 (IL-2 2.5 ng/mL) [8] | 0
NK-YS (IL-2 2.5 ng/mL) [10] | 0
NKL (IL-2 2.5 ng/mL) [7] | 0
SNK-6 (IL-2 2.5 ng/mL) [12] | 0
YT (IL-2 2.5 ng/mL) [4] | 0
[2] | 0
[3] | 4.36
[5] | 0
[13] | 0
[27] | 0

percent inhibition of viability [%]
Settings | 1 nM | 10 nM | 100 nM | 1000 nM | 10000 nM
DERL-7 (IL-2 2.5 ng/mL) [14] | -1.37 | 6.73 | -10.3 | -3.14 | 3.39
IMC-1 (IL-2 20 ng/mL) [19] | -4.92 | -2.89 | -1.1 | -3.52 | -3.58
KAI3 (IL-2 2.5 ng/mL) [22] | 1.34 | -2.83 | 3.75 | -1.27 | -8.91
KHYG-1 (IL-2 2.5 ng/mL) [24] | -5.28 | 1.66 | -5.39 | -4.15 | -3.04
NK-92 (IL-2 2.5 ng/mL) [21] | -18.6 | -17.5 | -11.1 | -7.12 | -16.9
NK-YS (IL-2 2.5 ng/mL) [23] | -6.64 | -3.26 | -5.52 | -1.38 | 4.13
NKL (IL-2 2.5 ng/mL) [20] | -7.92 | -9.21 | -9.03 | -6.87 | -4.34
SNK-6 (IL-2 2.5 ng/mL) [25] | -3.6 | 10.5 | -5.25 | -4.13 | -15.8
YT (IL-2 2.5 ng/mL) [17] | -2.28 | -2.31 | -4.1 | 0.78 | -1.43
[15] | -6.45 | -1.35 | -6.34 | -4.92 | -4.19
[16] | -3.8 | -2.57 | 0.76 | 26.6 | 18.2
[18] | -10.3 | -5.37 | -0.75 | -12.1 | -3.82
[26] | -2.66 | -3.34 | -7.26 | -0.16 | 1.72
[28] | -0.71 | -3.48 | -3.69 | -2.2 | 0.02

N#Cc1ccc(COC[C@H]2O[C@@H](n3c(NCc4ccc(Cl)c(Cl)c4)nc4c(N)ncnc43)[C@H](O)[C@@H]2O)cc1 (max concentration tested 10000 nM)
Settings | drug sensitivity score
DERL-7 (IL-2 2.5 ng/mL) [1] | 2.63
IMC-1 (IL-2 20 ng/mL) [6] | 4.46
KAI3 (IL-2 2.5 ng/mL) [9] | 3.83
KHYG-1 (IL-2 2.5 ng/mL) [11] | 5.29
NK-92 (IL-2 2.5 ng/mL) [8] | 3.57
NK-YS (IL-2 2.5 ng/mL) [10] | 6.65
NKL (IL-2 2.5 ng/mL) [7] | 0
SNK-6 (IL-2 2.5 ng/mL) [12] | 5.74
YT (IL-2 2.5 ng/mL) [4] | 5.18
[2] | 0
[3] | 3.54
[5] | 0.06
[13] | 0.69
[27] | 0.38

percent inhibition of viability [%]
Settings | 1 nM | 10 nM | 100 nM | 1000 nM | 10000 nM
DERL-7 (IL-2 2.5 ng/mL) [14] | 4.78 | 2.63 | 2.42 | 7.67 | 32.1
IMC-1 (IL-2 20 ng/mL) [19] | -1.92 | -0.39 | -4.01 | -16.8 | 97.2
KAI3 (IL-2 2.5 ng/mL) [22] | 1.01 | 1.02 | -1.36 | 17.5 | 34.8
KHYG-1 (IL-2 2.5 ng/mL) [24] | -2.11 | -1.26 | 0.87 | 11.4 | 62.4
NK-92 (IL-2 2.5 ng/mL) [21] | -0.8 | 4.51 | -4.4 | 7.42 | 45.2
NK-YS (IL-2 2.5 ng/mL) [23] | -1.65 | 1.3 | -0.1 | 21.7 | 64.4
NKL (IL-2 2.5 ng/mL) [20] | 4.1 | 5.28 | -8.68 | 9.7 | 9.11
SNK-6 (IL-2 2.5 ng/mL) [25] | 5.72 | 12.3 | -10.3 | 21.8 | 52.5
YT (IL-2 2.5 ng/mL) [17] | 2.07 | 0.4 | -2.55 | 12.2 | 59
[15] | -13.6 | -13.5 | -14 | -9.19 | -0.46
[16] | -3.74 | -9.12 | 7.84 | 15.3 | 41
[18] | -10.6 | -2.26 | -3.97 | -0.12 | 12.3
[26] | -6.38 | -11.1 | 5.83 | 5.84 | 18.5
[28] | -3.56 | -7.9 | -9.32 | 1.88 | 14.8
